The source of these data is article PMC6759758, “Cofactor Selectivity in Methylmalonyl Coenzyme A Mutase, a Model Cobamide-Dependent Enzyme” (mBio, 2019).

The test system of test [1] is S. meliloti cobD::gus Gm^r metH::Tn5 ΔnrdJ pMS03-nrdABEc^+. Briefly: MCM-dependent growth of S. meliloti on isoleucine/valine. The test is classed as cell-based, Sinorhizobium meliloti. Conditions: for EC50 fold higher than CNCbl: MCM-dependent growth; for EC50: OD600 at 145 h, L-isoleucine and L-valine as sole carbon sources, average and SD for five or more biological replicates, read-out: EC50 (concentration required to achieve half of the maximal OD600). Here is the method:
Because nrdJ is essential, the E. coli cobamide-independent ribonucleotide reductase encoded by nrdA and nrdB was expressed from the pMS03 plasmid ([143]). The strain was precultured in M9 medium ([144]) (modified concentration of MgSO4: 1 mM) containing 0.1% sucrose, 2 g/liter isoleucine, 2 g/liter valine, 1 g/liter methionine, and 20 μg/ml gentamicin, with shaking at 30°C. After 2 days, cells were washed and diluted to an OD600 of 0.02 into M9 medium containing 4 g/liter isoleucine, 4 g/liter valine, 1 g/liter methionine, 20 μg/ml gentamicin, and cobamides at various concentrations as indicated for each experiment, in 384-well plates. The plates were incubated at 30°C for 145 h in a BioTek Synergy 2 plate reader with linear shaking at 1,140 cpm. OD600 was measured in 1-h increments.

Test [2] deals with T1, SmMCM (methylmalonyl-CoA mutase from S. meliloti) (Rhizobium meliloti, UniProt O86028).
T1 construct: made in house; host or cells: E. coli BL21(DE3)pLysS
T1 sequence (O86028 2-712): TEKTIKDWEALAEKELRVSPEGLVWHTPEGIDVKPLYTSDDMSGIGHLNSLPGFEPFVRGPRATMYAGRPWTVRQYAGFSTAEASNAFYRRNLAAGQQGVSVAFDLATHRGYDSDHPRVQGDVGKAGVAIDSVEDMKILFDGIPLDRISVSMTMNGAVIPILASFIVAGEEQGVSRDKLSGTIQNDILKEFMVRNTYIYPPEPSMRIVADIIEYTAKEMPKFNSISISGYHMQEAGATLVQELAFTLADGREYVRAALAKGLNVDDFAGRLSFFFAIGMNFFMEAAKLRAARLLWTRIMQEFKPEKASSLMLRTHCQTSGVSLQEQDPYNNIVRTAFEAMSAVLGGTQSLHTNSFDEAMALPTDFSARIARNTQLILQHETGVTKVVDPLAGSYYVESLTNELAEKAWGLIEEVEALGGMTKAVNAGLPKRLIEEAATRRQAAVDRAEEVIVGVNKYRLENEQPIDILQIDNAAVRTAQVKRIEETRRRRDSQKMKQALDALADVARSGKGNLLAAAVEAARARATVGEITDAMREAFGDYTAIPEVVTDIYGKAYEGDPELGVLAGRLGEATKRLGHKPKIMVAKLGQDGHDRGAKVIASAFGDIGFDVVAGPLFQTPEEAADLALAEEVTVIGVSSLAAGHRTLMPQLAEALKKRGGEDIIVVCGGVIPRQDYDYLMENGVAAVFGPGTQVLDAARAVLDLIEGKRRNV
In words: biochemical. As to conditions: SmMCM 0.2 μM, pH 7.5, 30°C; average and standard deviation for three or more independent experiments; n. d. = binding too weak to determine Kd. The test is classed as binding, Sinorhizobium meliloti. As to the method: (§1) All steps involving cobamides were conducted in the dark. The plate was centrifuged for 1 min at 3,800 rpm to level the surface of the liquid in each well. The plate was then incubated for 40 min at 30°C to allow binding, with a brief shaking step after 30 min. […] Following incubation, fluorescence emission at 340 nm (5-nm slit width) was measured upon excitation at 282 nm (5-nm slit width) using a Tecan Infinite M1000 Pro plate reader. Fluorescence, normalized to the initial value, was plotted as a function of cobamide concentration, and fitted to the following equation ([134]): F/F0=1+ΔFmax/F0([E]+[L]+Kd)−([E]+[L]+Kd)^2−4[E][L]/2[E] where F is fluorescence, F0 is initial fluorescence, [E] is total enzyme concentration, [L] is total ligand concentration, and Kd is the binding dissociation constant.

In a further test the target is VpMCM (V. parvula MCM) (Veillonella parvula, UniProt A0A124EFR6). Briefly: Fluorescence binding assay, VpMCM. As to conditions: fitted curve, error = standard error of the curve fit; equimolar α and β subunits. Here is the method:
The α subunit of VpMCM (encoded by Vpar_RS09005) was expressed with an N-terminal 6×His tag from the pET-Duet expression vector in E. coli BL21(DE3). Protein expression was induced with 520 μM IPTG for 6 h at 30°C. The protein was batch purified by nickel affinity and subsequently purified by FPLC using a HiTrapQ column with an NaCl gradient from 50 to 500 mM in […], pH 8.0, 10% glycerol. The β subunit of VpMCM (encoded by Vpar_RS09000) was expressed separately with an N-terminal 6×His tag from the pET-Duet expression vector in E. coli BL21(DE3). […] Purified protein was dialyzed into 25 mM Tris-HCl, pH 8.0, 300 mM NaCl, 10% glycerol, and 1 mM β-mercaptoethanol. Concentration of pure α and β subunits (Fig. S7) was determined by absorbance at 280 nm (A280) using the theoretically calculated extinction coefficients 75,290 M^−1 cm^−1 and 74,260 M^−1 cm^−1, respectively ([125]). Equimolar amounts of α and β subunits were combined during the setup of fluorescence binding assays.
as §1

For the next test, the target named is T2, EcMCM (E. coli MCM) (Escherichia coli, UniProt P27253).
T2 construct: 6xHis (N); made in house; host or cells: E. coli BL21(DE3)
In words: Fluorescence binding assay, EcMCM. As to conditions: read-out: Kd EcMCM; fitted curve, error = standard error of the curve fit. Here is the method:
as §1

Test [3] concerns the target T3, SmMCM (Sinorhizobium meliloti MCM) (Rhizobium meliloti, UniProt O86028).
T3 construct: made in house; host or cells: E. coli BL21(DE3)pLysS
T3 sequence (O86028 2-712): T1 sequence (O86028 2-712)
In words: Thiokinase-coupled spectrophotometric MCM activity assay. The test is classed as biochemical. As to conditions: SmMCM 50 nM reconstituted with 2 μM cobamide; (R)-methylmalonyl-CoA to succinyl-CoA, steady state, 30°C. Here is the method: Final concentrations of reagents in the assays were as follows: Tris-phosphate buffer (pH 7.5), 100 mM Tris, 50 mM phosphate; dithionitrobenzoate (DTNB), 400 μM; ADP, 1 mM; MgCl2, 10 mM; (R)-methylmalonyl-CoA, 0 to 4 mM; thiokinase, 5 μM; MCM, 50 nM; and cobamides, 2 μM.
Three separate mixes were prepared, all in 1× Tris-phosphate buffer: an assay mix containing DTNB, ADP, and MgCl2; a substrate mix containing (R)-methylmalonyl-CoA; and an enzyme mix containing thiokinase, MCM, and cobamides. All steps involving cobamides were conducted in the dark. The assay and enzyme mixes were prepared as a master mix and aliquoted into 96-well plates; substrate mixes were prepared in individual wells, in triplicate. All components were incubated at 30°C for 40 min to equilibrate temperature and allow prebinding of cobamides and MCM. After incubation, one replicate at a time, the substrate mix was added to the assay mix, followed by the enzyme mix. Absorbance at 412 nm (A412) was recorded immediately after addition of enzyme and for 1 to 3 min, every 3 s, on a BioTek Synergy 2 plate reader. The increase in A412 in reaction mixtures lacking substrate was subtracted from all readings, to account for reactivity of DTNB with thiols on protein surfaces.

T2 sequence (P27253 whole entry): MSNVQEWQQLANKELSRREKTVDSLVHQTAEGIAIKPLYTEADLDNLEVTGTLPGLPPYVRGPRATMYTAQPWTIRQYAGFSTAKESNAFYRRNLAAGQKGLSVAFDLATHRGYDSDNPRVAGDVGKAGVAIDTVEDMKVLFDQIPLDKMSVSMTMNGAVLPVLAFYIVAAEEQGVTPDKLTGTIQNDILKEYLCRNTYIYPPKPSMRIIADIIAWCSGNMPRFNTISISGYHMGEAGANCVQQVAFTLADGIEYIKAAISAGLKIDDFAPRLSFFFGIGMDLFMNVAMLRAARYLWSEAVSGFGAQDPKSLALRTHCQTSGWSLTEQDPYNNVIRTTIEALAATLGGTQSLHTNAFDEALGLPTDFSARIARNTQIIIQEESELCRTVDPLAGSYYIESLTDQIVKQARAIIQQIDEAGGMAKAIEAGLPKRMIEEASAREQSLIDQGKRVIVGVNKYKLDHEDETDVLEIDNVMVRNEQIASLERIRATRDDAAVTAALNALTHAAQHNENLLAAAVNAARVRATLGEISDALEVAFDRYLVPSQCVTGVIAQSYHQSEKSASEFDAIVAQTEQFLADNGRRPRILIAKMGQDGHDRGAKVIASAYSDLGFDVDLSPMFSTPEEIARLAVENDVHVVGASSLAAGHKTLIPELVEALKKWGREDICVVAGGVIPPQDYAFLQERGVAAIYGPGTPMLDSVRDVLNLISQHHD
Sequence of VpMCM (V. parvula MCM) (A0A124EFR6 entry or part of it): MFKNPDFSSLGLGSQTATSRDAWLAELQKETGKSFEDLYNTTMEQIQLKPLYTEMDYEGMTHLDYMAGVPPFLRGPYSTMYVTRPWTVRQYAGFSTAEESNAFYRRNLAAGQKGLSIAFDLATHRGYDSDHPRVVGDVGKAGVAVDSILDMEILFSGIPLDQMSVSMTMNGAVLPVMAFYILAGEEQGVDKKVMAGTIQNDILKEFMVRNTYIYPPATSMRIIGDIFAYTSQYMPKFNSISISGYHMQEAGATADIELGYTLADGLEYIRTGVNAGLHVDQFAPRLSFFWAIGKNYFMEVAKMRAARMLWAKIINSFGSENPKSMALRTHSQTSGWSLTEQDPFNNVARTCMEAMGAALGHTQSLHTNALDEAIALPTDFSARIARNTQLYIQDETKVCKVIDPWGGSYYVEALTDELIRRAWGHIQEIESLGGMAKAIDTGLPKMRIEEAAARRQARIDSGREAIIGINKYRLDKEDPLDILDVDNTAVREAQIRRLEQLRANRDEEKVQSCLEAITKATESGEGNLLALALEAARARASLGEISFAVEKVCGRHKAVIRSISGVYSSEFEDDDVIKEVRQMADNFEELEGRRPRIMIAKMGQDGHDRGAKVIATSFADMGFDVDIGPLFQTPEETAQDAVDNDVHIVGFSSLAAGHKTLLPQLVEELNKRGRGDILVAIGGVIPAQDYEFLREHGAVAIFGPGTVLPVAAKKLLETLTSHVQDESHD

Regarding “2-Methyladeninylcobamide [CN[2-MeAde]Cba]”, in test [1], the “EC50 fold higher than CNCbl” value came to 5 fold and the EC50 was 24 ± 9 nM.

“5-Hydroxybenzimidazolylcobamide [CN[5-OHBza]Cba]”: the EC50 in test [1] amounted to 400 ± 100 nM.

In the case of `C/C1=C2/[N-][C@H]([C@H](CC(N)=O)[C@@]2(C)CCC(=O)NC[C@@H](C)OP(=O)([O-])O[C@H]2[C@@H](O)[C@@H](n3cnc4nc(C)nc(N)c43)O[C@@H]2CO)[C@]2(C)N=C(/C(C)=C3N=C(/C=C4N=C1[C@@H](CCC(N)=O)C\4(C)C)[C@@H](CCC(N)=O)[C@]\3(C)CC(N)=O)[C@@H](CCC(N)=O)[C@]2(C)CC(N)=O.[CH2-][C@H]1O[C@@H](n2cnc3c(N)ncnc32)[C@H](O)[C@@H]1O.[Co+3]` [Ado[2-MeAde]Cba, 2-Methyladeninylcobamide], the Kd stood at 1700 ± 700 nM in test [2], 1500 ± 200 nM on VpMCM (V. parvula MCM) and 350 ± 40 nM on EcMCM (E. coli MCM).

The molecule `C/C1=C2/[N-][C@H]([C@H](CC(N)=O)[C@@]2(C)CCC(=O)NC[C@@H](C)OP(=O)([O-])O[C@H]2[C@@H](O)[C@@H](n3cnc4cc(C)ccc43)O[C@@H]2CO)[C@]2(C)N=C(/C(C)=C3N=C(/C=C4N=C1[C@@H](CCC(N)=O)C\4(C)C)[C@@H](CCC(N)=O)[C@]\3(C)CC(N)=O)[C@@H](CCC(N)=O)[C@]2(C)CC(N)=O.[CH2-][C@H]1O[C@@H](n2cnc3c(N)ncnc32)[C@H](O)[C@@H]1O.[Co+3]` [Ado[5-MeBza]Cba, 5-Methylbenzimidazolylcobamide] showed a Kd in test [2] of 100 ± 40 nM. The kcat in test [3] amounted to 12.8 ± 0.5 s⁻¹.

Regarding `C/C1=C2/[N-][C@H]([C@H](CC(N)=O)[C@@]2(C)CCC(=O)NC[C@@H](C)OP(=O)([O-])O[C@H]2[C@@H](O)[C@@H](n3cnc4cccc(N)c43)O[C@@H]2CO)[C@]2(C)N=C(/C(C)=C3N=C(/C=C4N=C1[C@@H](CCC(N)=O)C\4(C)C)[C@@H](CCC(N)=O)[C@]\3(C)CC(N)=O)[C@@H](CCC(N)=O)[C@]2(C)CC(N)=O.[CH2-][C@H]1O[C@@H](n2cnc3c(N)ncnc32)[C@H](O)[C@@H]1O.[Co+3]` [Ado[7-AmBza]Cba, 7-Aminobenzimidazolylcobamide], the Kd in test [2] came out at 700 ± 100 nM.

`C/C1=C2/[N-][C@H]([C@H](CC(N)=O)[C@@]2(C)CCC(=O)NC[C@@H](C)OP(=O)([O-])O[C@H]2[C@@H](O)[C@@H](n3cnc4cccc(C)c43)O[C@@H]2CO)[C@]2(C)N=C(/C(C)=C3N=C(/C=C4N=C1[C@@H](CCC(N)=O)C\4(C)C)[C@@H](CCC(N)=O)[C@]\3(C)CC(N)=O)[C@@H](CCC(N)=O)[C@]2(C)CC(N)=O.[CH2-][C@H]1O[C@@H](n2cnc3c(N)ncnc32)[C@H](O)[C@@H]1O.[Co+3]` [Ado[7-MeBza]Cba, 7-Methylbenzimidazolylcobamide] returned a Kd in test [2] of 100 ± 20 nM.

Take `C/C1=C2/[N-][C@H]([C@H](CC(N)=O)[C@@]2(C)CCC(=O)NC[C@@H](C)OP(=O)([O-])O[C@H]2[C@@H](O)[C@@H](Oc3ccc(C)cc3)O[C@@H]2CO)[C@]2(C)N=C(/C(C)=C3N=C(/C=C4N=C1[C@@H](CCC(N)=O)C\4(C)C)[C@@H](CCC(N)=O)[C@]\3(C)CC(N)=O)[C@@H](CCC(N)=O)[C@]2(C)CC(N)=O.[CH2-][C@H]1O[C@@H](n2cnc3c(N)ncnc32)[C@H](O)[C@@H]1O.[Co+3]` [Ado[Cre]Cba, para-Cresolylcobamide]: the Kd was determined as 50 ± 10 nM in test [2], 1300 ± 100 nM at VpMCM (V. parvula MCM) and 620 ± 90 nM at EcMCM (E. coli MCM). The kcat in test [3] was found to be 15 ± 1 s⁻¹.

For the molecule `C/C1=C2/[N-][C@H]([C@H](CC(N)=O)[C@@]2(C)CCC(=O)NC[C@@H](C)OP(=O)([O-])O[C@H]2[C@@H](O)[C@@H](Oc3ccccc3)O[C@@H]2CO)[C@]2(C)N=C(/C(C)=C3N=C(/C=C4N=C1[C@@H](CCC(N)=O)C\4(C)C)[C@@H](CCC(N)=O)[C@]\3(C)CC(N)=O)[C@@H](CCC(N)=O)[C@]2(C)CC(N)=O.[CH2-][C@H]1O[C@@H](n2cnc3c(N)ncnc32)[C@H](O)[C@@H]1O.[Co+3]` [Ado[Phe]Cba, Phenolylcobamide], the Kd amounted to 200 ± 30 nM in test [2], 5000 ± 1000 nM at VpMCM (V. parvula MCM) and 1300 ± 200 nM at EcMCM (E. coli MCM). For the same molecule, the kcat in test [3] is 8.3 ± 0.4 s⁻¹.

Regarding `C#N.C/C1=C2/N[C@H]([C@H](CC(N)=O)[C@@]2(C)CCC(=O)NC[C@@H](C)OP(=O)(O)O[C@H]2[C@@H](O)[C@@H](n3cnc4ncnc(N)c43)O[C@@H]2CO)[C@]2(C)N=C(/C(C)=C3N=C(/C=C4N=C1[C@@H](CCC(N)=O)C\4(C)C)[C@@H](CCC(N)=O)[C@]\3(C)CC(N)=O)[C@@H](CCC(N)=O)[C@]2(C)CC(N)=O.[Co]` [CN[Ade]Cba, Adeninylcobamide], the EC50 in test [1] amounted to 350 ± 90 nM.

As for Benzimidazolylcobamide [CN[Bza]Cba], in test [1], the “EC50 fold higher than CNCbl” value was found to be 5 fold and the EC50 amounted to 27 ± 7 nM.

Turning to Phenolylcobamide [CN[Phe]Cba], in test [1], the EC50 was 400 ± 100 nM.

Turning to Purinylcobamide [CN[Pur]Cba], in test [1], the EC50 was found to be 600 ± 200 nM.

Regarding “cyanocobalamin [CNCbl, reference compound]”, the EC50 in test [1] is 5 ± 1 nM.

As to para-Cresolylcobamide [CN[Cre]Cba], the EC50 in test [1] is 700 ± 100 nM.

In general, Kd refers to a measure of binding affinity in units of concentration. By kcat is commonly meant the number of substrate molecules converted per active site and unit of time at saturation.
